This is an account of results in US10294229B2, “Heteroaryl substituted aminopyridine compounds” (BRISTOL-MYERS SQUIBB COMPANY, priority 2015, dated 2019).

The target of one assay is IRAK4 (Homo sapiens (Human), UniProt Q9NWZ3). Put plainly: IRAK4 Inhibition Assay. The note with it: ATP 500 μM; IRAK4 0.6 nM. It is filed as biochemical. The method in brief:
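Readout: electrophoretic (LabChip) separation of fluorescent peptide substrate from phosphorylated product after EDTA quench. Reactions ran 60 min at room temperature with 0.6 nM IRAK4, 1.5 μM peptide and 500 μM ATP; inhibition referenced to no-enzyme (100%) and vehicle (0%) controls.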

Assay [1] has as its system Human whole blood stimulated with a TLR2 agonist (lipoteichoic acid), IL-6 levels. Put plainly: IRAK4 Whole Blood Assay. The assay is classed as cell-based. To be noted: lipoteichoic acid 10 μg/mL. As for the experimental part: Human whole blood containing the anti-coagulant ACD-A was plated in 384-well plate (25 μL/well) and incubated with compounds for 60 minutes at 37° C. in a 5% CO2 incubator. The blood was stimulated with a TLR2 agonist, 10 μg/mL final concentration of lipoteichoic acid (Invivogen, San Diego, Calif.) in 25 μL RPMI (Gibco) for 5 hours in a 5% CO2 incubator. At the end of the incubation, plates were centrifuged at 2300 rpm for 5 minutes. Supernatants were harvested and analyzed for IL-6 levels by Flow Cytometry beads assay (BD Biosciences, San Jose, Calif.).

The structures appear in SMILES notation.

IRAK4, sequence (Q9NWZ3 whole entry, species assumed): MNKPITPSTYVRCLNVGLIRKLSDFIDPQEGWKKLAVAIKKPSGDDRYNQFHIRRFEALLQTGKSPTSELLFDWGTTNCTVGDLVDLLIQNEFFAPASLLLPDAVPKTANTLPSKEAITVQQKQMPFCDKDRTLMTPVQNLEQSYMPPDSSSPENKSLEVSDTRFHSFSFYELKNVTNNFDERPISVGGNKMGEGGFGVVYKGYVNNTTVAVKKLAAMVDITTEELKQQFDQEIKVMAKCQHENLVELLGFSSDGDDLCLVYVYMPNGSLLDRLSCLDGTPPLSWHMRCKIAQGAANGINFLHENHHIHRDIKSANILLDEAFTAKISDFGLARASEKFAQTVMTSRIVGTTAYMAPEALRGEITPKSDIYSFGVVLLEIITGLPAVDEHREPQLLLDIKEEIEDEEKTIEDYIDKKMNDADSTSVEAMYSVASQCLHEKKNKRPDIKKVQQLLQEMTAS

Regarding `CC(C)Nc1cc(-n2ncc3cc(C#N)cnc32)ncc1-n1cc(CC(F)C(C)(C)O)nn1` (racemic) [345, racemic, (±)-1-(5-(4-(2-fluoro-3-hydroxy-3-methylbutyl)-1H-1,2,3-triazol-1-yl)-4-(isopropylamino)pyridin-2-yl)-1H-pyrazolo[3,4-b]pyridine-5-carbonitrile], the IC50 at IRAK4 worked out at 4 nM. This molecule also showed a 50% effective concentration (EC50) in assay [1] (Homo sapiens) of 270 nM.
Consider `CC(C)Nc1cc(-n2ncc3cc(C#N)cnc32)ncc1-c1cn([C@@H]2CCC[C@H]2O)nn1` (single isomer, unassigned) [Example 80], for which the IC50 on IRAK4 worked out at 3 nM. Also, the midpoint of the response in assay [1], the EC50, lay at 590 nM.
`CC(C)Nc1cc(-n2cnc3cc(C#N)cnc32)ncc1-c1cn([C@@H]2CCC[C@H]2O)nn1` (single isomer, unassigned) [Example 81]: the IC50 at IRAK4 was determined as 4 nM. A half-maximal effect in assay [1] (Homo sapiens) (EC50) was put at 1540 nM.
Turning to `CC(C)Nc1cc(-n2ncc3cc(C#N)cnc32)ncc1-c1cn([C@@H]2CCC[C@H]2O)nn1` (single isomer, unassigned) [Example 82], the IC50 on IRAK4 was 5 nM. The same molecule displayed an EC50 in assay [1] of 1660 nM.
As for `CC(C)Nc1cc(-n2cnc3cc(C#N)cnc32)ncc1-c1cn([C@@H]2CCC[C@H]2O)nn1` (single isomer, unassigned) [Example 83], the IC50 at IRAK4 came out at 5 nM. The concentration for a half-maximal effect (EC50) in assay [1] came to 860 nM.
For the molecule `CC(C)Nc1cc(-n2ncc3cc(C#N)cnc32)ncc1-c1cn([C@H](C)[C@H](C)O)nn1` (single isomer, unassigned) [Example 89], the IC50 on IRAK4 is 7 nM. In assay [1], this molecule displayed an EC50 of 930 nM.
`CC(C)Nc1cc(-n2ncc3cc(C#N)cnc32)ncc1-c1cn([C@@H](C)[C@H](C)O)nn1` (single isomer, unassigned) [Example 91]: the IC50 on IRAK4 is 5 nM. This molecule also had an EC50 in assay [1] of 1920 nM.
For the molecule `CC(C)Nc1cc(-n2ncc3cc(C#N)cnc32)ncc1-c1cn([C@@H]2CCN(S(C)(=O)=O)C[C@H]2O)nn1` (single isomer, unassigned) [Example 199], the IC50 at IRAK4 is 4 nM. The EC50 in assay [1] (Homo sapiens) is 550 nM.
For `CC(C)Nc1cc(-n2ncc3cc(C#N)cnc32)ncc1-c1cn([C@@H]2CCN(S(C)(=O)=O)C[C@H]2OS(C)(=O)=O)nn1` (single isomer, unassigned) [Example 202], in that order: 5 nM and 950 nM.
Take `CC(C)Nc1cc(-n2ncc3cc(C#N)cnc32)ncc1-c1cn([C@@H]2CCN(S(C)(=O)=O)C[C@H]2O)nn1` (single isomer, unassigned) [Example 204]: at IRAK4, the IC50 was 6 nM. In addition, in assay [1], the response was half-maximal at 710 nM (EC50).
In the case of `CC(O)Cc1cn(-c2cnc(-n3ncc4cc(C#N)cnc43)cc2NC(C)C)nn1` (single isomer, unassigned) [Example 265, 1-(5-(4-(2-hydroxypropyl)-1H-1,2,3-triazol-1-yl)-4-(isopropylamino)pyridin-2-yl)-1H-pyrazolo[3,4-b]pyridine-5-carbonitrile], at IRAK4, the IC50 is 5 nM. This molecule also returned an EC50 in assay [1] (Homo sapiens) of 410 nM.
On to `CC(F)Cc1cn(-c2cnc(-n3cnc4cc(C#N)cnc43)cc2NC(C)C)nn1` (single isomer, unassigned) [Example 291, 3-(5-(4-(2-fluoropropyl)-1H-1,2,3-triazol-1-yl)-4-(isopropylamino)pyridin-2-yl)-3H-imidazo[4,5-b]pyridine-6-carbonitrile], for which the IC50 at IRAK4 was 14 nM. Further, a half-maximal response in assay [1] (Homo sapiens) (EC50) required 850 nM.
In assay [1] (Homo sapiens), `CC(C)Nc1cc(-n2ncc3cc(C#N)cnc32)ncc1-c1cn(CCN)nn1` [Example 172, 1-(5-(1-(2-aminoethyl)-1H-1,2,3-triazol-4-yl)-4-(isopropylamino)pyridin-2-yl)-1H-pyrazolo[3,4-b]pyridine-5-carbonitrile] had an EC50 of 950 nM.
Same read-out and setting: in the case of `CC(F)Cc1cn(-c2cnc(-n3ncc4cc(C#N)cnc43)cc2NC(C)C)nn1` (centres unmarked) [Example 294, 1-(5-(4-(2-fluoropropyl)-1H-1,2,3-triazol-1-yl)-4-(isopropylamino)pyridin-2-yl)-1H-pyrazolo[3,4-b]pyridine-5-carbonitrile] it was 1710 nM.
For the molecule `CNCc1cn(-c2cnc(-n3ncc4cc(C#N)cnc43)cc2NC(C)C)nn1` [Example 314, 1-(4-(isopropylamino)-5-(4-((methylamino)methyl)-1H-1,2,3-triazol-1-yl)pyridin-2-yl)-1H-pyrazolo[3,4-b]pyridine-5-carbonitrile], the IC50 at IRAK4 was determined as 93 nM.
The same measure, in the same setting: in the case of `COc1cc(OC)cc(-c2cn(-c3cnc(-n4ncc5cc(C#N)cnc54)cc3NC(C)C)nn2)c1` [Example 316, 1-(5-(4-(3,5-dimethoxyphenyl)-1H-1,2,3-triazol-1-yl)-4-(isopropylamino)pyridin-2-yl)-1H-pyrazolo[3,4-b]pyridine-5-carbonitrile] it was 244 nM; in that of `CC(C)Nc1cc(-n2ncc3cc(C#N)cnc32)ncc1-n1cc(-c2cncn2C)nn1` [Example 317, 1-(4-(isopropylamino)-5-(4-(1-methyl-1H-imidazol-5-yl)-1H-1,2,3-triazol-1-yl)pyridin-2-yl)-1H-pyrazolo[3,4-b]pyridine-5-carbonitrile], 60 nM.
As for `CCC(C)(O)c1cn(-c2cnc(-n3ncc4cc(C#N)cnc43)cc2NC(C)C)nn1` (centres unmarked) [Example 322, 1-(5-(4-(2-hydroxybutan-2-yl)-1H-1,2,3-triazol-1-yl)-4-(isopropylamino)pyridin-2-yl)-1H-pyrazolo[3,4-b]pyridine-5-carbonitrile], the IC50 at IRAK4 stood at 39 nM.
Consider `CC(C)Nc1cc(-n2ncc3cc(C#N)cnc32)ncc1-n1cc(-c2ccncc2)nn1` [Example 326, 1-(4-(isopropylamino)-5-(4-(pyridin-4-yl)-1H-1,2,3-triazol-1-yl)pyridin-2-yl)-1H-pyrazolo [3,4-b]pyridine-5-carbonitrile], for which the 50% inhibitory concentration (IC50) at IRAK4 was 28 nM.
As for `CC(C)Nc1cc(-n2ncc3cc(C#N)cnc32)ncc1-n1cc(CCN)nn1` [Example 328, 1-(5-(4-(2-aminoethyl)-1H-1,2,3-triazol-1-yl)-4-(isopropylamino)pyridin-2-yl)-1H-pyrazolo[3,4-b]pyridine-5-carbonitrile], at IRAK4, the IC50 was found to be 26 nM.
Turning to `CC(C)Nc1cc(-n2ncc3cc(C#N)cnc32)ncc1-n1cc(CF)nn1` [Example 329, 1-(5-(4-(fluoromethyl)-1H-1,2,3-triazol-1-yl)-4-(isopropylamino)pyridin-2-yl)-1H-pyrazolo[3,4-b]pyridine-5-carbonitrile], the IC50 on IRAK4 is 34 nM.
As to `CCN[C@H]1CC[C@H](c2cn(-c3cnc(-n4ncc5cc(C#N)cnc54)cc3NC(C)C)nn2)CC1` [Example 356, 1-(5-(4-((1s,4s)-4-(ethylamino)cyclohexyl)-1H-1,2,3-triazol-1-yl)-4-(isopropylamino)pyridin-2-yl)-1H-pyrazolo[3,4-b]pyridine-5-carbonitrile], the IC50 at IRAK4 stood at 3 nM.
With `CC(C)(O)CCc1cn(-c2cnc(-n3ncc4cc(C#N)cnc43)cc2N[C@H]2CC[C@@H](F)CC2)nn1` [Example 374, 1-(4-(((1r,4r)-4-fluorocyclohexyl)amino)-5-(4-(3-hydroxy-3-methylbutyl)-1H-1,2,3-triazol-1-yl)pyridin-2-yl)-1H-pyrazolo[3,4-b]pyridine-5-carbonitrile], the IC50 at IRAK4 is 2 nM.
Regarding `C[C@@H](CO)Nc1cc(-n2ncc3cc(C#N)cnc32)ncc1-n1cc(CCC(C)(C)O)nn1` [Example 376, (S)-1-(5-(4-(3-hydroxy-3-methylbutyl)-1H-1,2,3-triazol-1-yl)-4-((1-hydroxypropan-2-yl)amino)pyridin-2-yl)-1H-pyrazolo[3,4-b]pyridine-5-carbonitrile], the response in assay [1] (Homo sapiens) was half-maximal at 380 nM (EC50).
Molecule `CC(C)(O)CCc1cn(-c2cnc(-n3ncc4cc(C#N)cnc43)cc2NC2CCC(O)CC2)nn1` (centres unmarked) [Example 385, 1-(5-(4-(3-hydroxy-3-methylbutyl)-1H-1,2,3-triazol-1-yl)-4-(((1 s,4s)-4-hydroxycyclohexyl)amino)pyridin-2-yl)-1H-pyrazolo[3,4-b]pyridine-5-carbonitrile] had an EC50 in assay [1] (Homo sapiens) of 490 nM.
On to `CC(C)(O)CCc1cn(-c2cnc(-n3ncc4cc(C#N)cnc43)cc2N[C@H]2CC[C@H](O)CC2)nn1` [Example 385, 1-(5-(4-(3-hydroxy-3-methylbutyl)-1H-1,2,3-triazol-1-yl)-4-(((1 s,4s)-4-hydroxycyclohexyl)amino)pyridin-2-yl)-1H-pyrazolo[3,4-b]pyridine-5-carbonitrile], for which the IC50 on IRAK4 is 3 nM.
On the same count and under the same terms, in the case of `CC(=O)N[C@H]1CC[C@H](c2cc(-c3cnc(-n4ncc5cc(C#N)cnc54)cc3NC(C)C)on2)CC1` [Example 410, N-((1s,4s)-4-(5-(6-(5-cyano-1H-pyrazolo[3,4-b]pyridin-1-yl)-4-(isopropylamino)pyridin-3-yl)isoxazol-3-yl)cyclohexyl)acetamide] it was 2 nM.
Regarding `COC(=O)N[C@H]1CC[C@H](c2cc(-c3cnc(-n4ncc5cc(C#N)cnc54)cc3NC(C)C)on2)CC1` [Example 411, methyl ((1s,4s)-4-(5-(6-(5-cyano-1H-pyrazolo[3,4-b]pyridin-1-yl)-4-(isopropylamino)pyridin-3-yl)isoxazol-3-yl)cyclohexyl)carbamate], the 50% inhibitory concentration (IC50) on IRAK4 was determined as 3 nM.
Take `CC(C)Nc1cc(-n2ncc3cc(C#N)cnc32)ncc1-c1cc([C@@H]2CCCCN2)on1` [Example 430, (S)-1-(4-(isopropylamino)-5-(5-(piperidin-2-yl)isoxazol-3-yl)pyridin-2-yl)-1H-pyrazolo[3,4-b]pyridine-5-carbonitrile]: the EC50 in assay [1] (Homo sapiens) came to 470 nM.

A word on the IC50: it is the midpoint of a concentration-inhibition curve. Broadly, the EC50 is the concentration at which the effect is half-maximal. High values mean weaker potency, low ones greater potency.
